Test results from PubChem BioAssay (NCI).
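Step 1: Grow cells in 96-well plates. Step 2: Expose to compound for 48 hours at 5 concentrations. Step 3: Interpolate endpoints linearly; if unreached, use highest concentration. GI50 is the concentration that inhibits growth by half. The concentration for full growth arrest is given as TGI.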

Assays:
Test in all cases: inhibition of tumour cell growth, NCI panel, 48 h
OVCAR-4 ovarian = system: OVCAR-4 ovarian
HCC-2998 colon = system: HCC-2998 colon
SF-295 CNS = system: SF-295 CNS
RXF 393 renal = system: RXF 393 renal
DU-145 prostate = system: DU-145 prostate
SF-539 CNS = system: SF-539 CNS
TK-10 renal = system: TK-10 renal
SW-620 colon = system: SW-620 colon
K-562 leukemia = system: K-562 leukemia
UACC-257 melanoma = system: UACC-257 melanoma
NCI-H522 lung = system: NCI-H522 lung
SN12C renal = system: SN12C renal
HOP-62 NSCLC = system: HOP-62 NSCLC
OVCAR-5 ovarian = system: OVCAR-5 ovarian
EKVX NSCLC = system: EKVX NSCLC
MDA-MB-231 breast = system: MDA-MB-231 breast
A498 renal = system: A498 renal
T-47D breast = system: T-47D breast
SF-268 CNS = system: SF-268 CNS
MOLT-4 leukemia = system: MOLT-4 leukemia
COLO 205 colon = system: COLO 205 colon
UACC-62 melanoma = system: UACC-62 melanoma
LOX IMVI melanoma = system: LOX IMVI melanoma
NCI-H460 lung = system: NCI-H460 lung
PC-3 prostate = system: PC-3 prostate
SK-MEL-2 melanoma = system: SK-MEL-2 melanoma
SR leukemia = system: SR leukemia
HCT-15 colon = system: HCT-15 colon
UO-31 renal = system: UO-31 renal
NCI-H23 lung = system: NCI-H23 lung
SK-OV-3 ovarian = system: SK-OV-3 ovarian
MALME-3M melanoma = system: MALME-3M melanoma
CAKI-1 renal = system: CAKI-1 renal
KM12 colon = system: KM12 colon
SNB-19 CNS = system: SNB-19 CNS
HOP-92 NSCLC = system: HOP-92 NSCLC
NCI-H226 lung = system: NCI-H226 lung
SK-MEL-28 melanoma = system: SK-MEL-28 melanoma
M14 melanoma = system: M14 melanoma
MCF7 breast = system: MCF7 breast
HL-60(TB) leukemia = system: HL-60(TB) leukemia
SK-MEL-5 melanoma = system: SK-MEL-5 melanoma
IGROV1 ovarian = system: IGROV1 ovarian
MDA-MB-468 breast = system: MDA-MB-468 breast
HS 578T breast = system: HS 578T breast
NCI/ADR-RES ovarian = system: NCI/ADR-RES ovarian
BT-549 breast = system: BT-549 breast
SNB-75 CNS = system: SNB-75 CNS
ACHN renal = system: ACHN renal
OVCAR-3 ovarian = system: OVCAR-3 ovarian
MDA-MB-435 = system: MDA-MB-435
RPMI-8226 leukemia = system: RPMI-8226 leukemia
CCRF-CEM leukemia = system: CCRF-CEM leukemia
HT29 colon = system: HT29 colon
OVCAR-8 ovarian = system: OVCAR-8 ovarian
A549 NSCLC = system: A549 NSCLC
786-0 renal = system: 786-0 renal

What does the source list for `O=C(CSc1nnc(-c2ccc3nc(-c4ccc(Cl)cc4)[nH]c3c2)o1)Nc1ccc(Cl)cc1`?
GI50 (OVCAR-4 ovarian): 2.61 µM; TGI (OVCAR-4 ovarian): 7.73 µM; GI50 (HCC-2998 colon): 3.63 µM; TGI (HCC-2998 colon): 14.4 µM; GI50 (SF-295 CNS): 1.64 µM; TGI (SF-295 CNS): 3.14 µM; GI50 (RXF 393 renal): 1.59 µM; TGI (RXF 393 renal): 3.7 µM; GI50 (DU-145 prostate): 2.53 µM; TGI (DU-145 prostate): 6.35 µM; GI50 (SF-539 CNS): 1.55 µM; TGI (SF-539 CNS): 2.9 µM; GI50 (TK-10 renal): 10.3 µM; TGI (TK-10 renal): 26.5 µM; GI50 (SW-620 colon): 2.18 µM; TGI (SW-620 colon): 5.72 µM; GI50 (K-562 leukemia): 2.89 µM; TGI (K-562 leukemia): > 100 µM; GI50 (UACC-257 melanoma): 2.4 µM; TGI (UACC-257 melanoma): 6.24 µM; GI50 (NCI-H522 lung): 2.05 µM; TGI (NCI-H522 lung): 5.61 µM; GI50 (SN12C renal): 1.69 µM; TGI (SN12C renal): 3.19 µM; GI50 (HOP-62 NSCLC): 2.3 µM; TGI (HOP-62 NSCLC): 5.46 µM; GI50 (OVCAR-5 ovarian): 8.68 µM; TGI (OVCAR-5 ovarian): 23.9 µM; GI50 (EKVX NSCLC): 2.04 µM; TGI (EKVX NSCLC): 6.43 µM; GI50 (MDA-MB-231 breast): 1.66 µM; TGI (MDA-MB-231 breast): 3.11 µM; GI50 (A498 renal): 12.3 µM; TGI (A498 renal): 26.4 µM; GI50 (T-47D breast): 7.07 µM; TGI (T-47D breast): 68.2 µM; GI50 (SF-268 CNS): 3.18 µM; TGI (SF-268 CNS): 77.9 µM; GI50 (MOLT-4 leukemia): 2.6 µM; TGI (MOLT-4 leukemia): > 100 µM; GI50 (COLO 205 colon): 3.52 µM; TGI (COLO 205 colon): 28.5 µM; GI50 (UACC-62 melanoma): 1.56 µM; TGI (UACC-62 melanoma): 3.37 µM; GI50 (LOX IMVI melanoma): 1.54 µM; TGI (LOX IMVI melanoma): 2.88 µM; GI50 (NCI-H460 lung): 1.77 µM; TGI (NCI-H460 lung): 3.38 µM; GI50 (PC-3 prostate): 2.44 µM; TGI (PC-3 prostate): 7.99 µM; GI50 (SK-MEL-2 melanoma): 2.53 µM; TGI (SK-MEL-2 melanoma): 7.08 µM; GI50 (SR leukemia): 3.6 µM; TGI (SR leukemia): > 100 µM; GI50 (HCT-15 colon): 1.37 µM; TGI (HCT-15 colon): 3.18 µM; GI50 (UO-31 renal): 1.61 µM; TGI (UO-31 renal): 4.02 µM; GI50 (NCI-H23 lung): 1.65 µM; TGI (NCI-H23 lung): 3.24 µM; GI50 (SK-OV-3 ovarian): 3.89 µM; TGI (SK-OV-3 ovarian): 14.1 µM; GI50 (MALME-3M melanoma): 1.86 µM; TGI (MALME-3M melanoma): 4.07 µM; GI50 (CAKI-1 renal): 1.62 µM; TGI (CAKI-1 renal): 3.79 µM; GI50 (KM12 colon): 2.78 µM; TGI (KM12 colon): 27 µM; GI50 (SNB-19 CNS): 2.04 µM; TGI (SNB-19 CNS): 4.52 µM; GI50 (HOP-92 NSCLC): 2.33 µM; TGI (HOP-92 NSCLC): 6.86 µM; GI50 (NCI-H226 lung): 1.72 µM; TGI (NCI-H226 lung): 4.33 µM; GI50 (SK-MEL-28 melanoma): 1.94 µM; TGI (SK-MEL-28 melanoma): 4.22 µM; GI50 (M14 melanoma): 2.11 µM; TGI (M14 melanoma): 5.01 µM; GI50 (MCF7 breast): 1.76 µM; TGI (MCF7 breast): 4.08 µM; GI50 (HL-60(TB) leukemia): 2.43 µM; TGI (HL-60(TB) leukemia): 7.59 µM; GI50 (SK-MEL-5 melanoma): 1.97 µM; TGI (SK-MEL-5 melanoma): 4.2 µM; GI50 (IGROV1 ovarian): 2.24 µM; TGI (IGROV1 ovarian): 7.98 µM; GI50 (MDA-MB-468 breast): 2.41 µM; TGI (MDA-MB-468 breast): 6.19 µM; GI50 (HS 578T breast): 2.43 µM; TGI (HS 578T breast): 8.1 µM; GI50 (NCI/ADR-RES ovarian): 2.55 µM; TGI (NCI/ADR-RES ovarian): 6.92 µM; GI50 (BT-549 breast): 2.33 µM; TGI (BT-549 breast): 5 µM; GI50 (SNB-75 CNS): 1.75 µM; TGI (SNB-75 CNS): 5.58 µM; GI50 (ACHN renal): 1.51 µM; TGI (ACHN renal): 3.19 µM

Which results are given for `COc1ccc(C(=O)/C=C/c2cc3c(cc2Br)OCO3)cc1S(N)(=O)=O`?
GI50 (OVCAR-4 ovarian): 3.72 µM; TGI (OVCAR-4 ovarian): 32.3 µM; GI50 (HCC-2998 colon): 5.39 µM; TGI (HCC-2998 colon): 24.2 µM; GI50 (SF-295 CNS): 6.21 µM; TGI (SF-295 CNS): 25.4 µM; GI50 (RXF 393 renal): 2.77 µM; TGI (RXF 393 renal): 17.5 µM; GI50 (DU-145 prostate): 3.71 µM; TGI (DU-145 prostate): 12.7 µM; GI50 (SF-539 CNS): 1.72 µM; TGI (SF-539 CNS): 3.27 µM; GI50 (TK-10 renal): 14.6 µM; TGI (TK-10 renal): 36.3 µM; GI50 (K-562 leukemia): 0.445 µM; TGI (K-562 leukemia): 11.8 µM; GI50 (UACC-257 melanoma): 14.9 µM; TGI (UACC-257 melanoma): 42.7 µM; GI50 (NCI-H522 lung): 2.79 µM; TGI (NCI-H522 lung): 14.9 µM; GI50 (SN12C renal): 2.05 µM; TGI (SN12C renal): 5.32 µM; GI50 (HOP-62 NSCLC): 2.62 µM; TGI (HOP-62 NSCLC): > 100 µM; GI50 (OVCAR-5 ovarian): 2.65 µM; TGI (OVCAR-5 ovarian): 10.2 µM; GI50 (EKVX NSCLC): 9.71 µM; TGI (EKVX NSCLC): 42.9 µM; GI50 (MDA-MB-231 breast): 2.87 µM; TGI (MDA-MB-231 breast): 8.68 µM; GI50 (OVCAR-3 ovarian): 2.55 µM; TGI (OVCAR-3 ovarian): 6.62 µM; GI50 (A498 renal): 15.2 µM; TGI (A498 renal): 28.8 µM; GI50 (MDA-MB-435): 13.6 µM; TGI (MDA-MB-435): 37.5 µM; GI50 (T-47D breast): 5.99 µM; TGI (T-47D breast): 33 µM; GI50 (SF-268 CNS): 5.33 µM; TGI (SF-268 CNS): 29.9 µM; GI50 (MOLT-4 leukemia): 2.3 µM; TGI (MOLT-4 leukemia): 7.68 µM; GI50 (COLO 205 colon): 5.39 µM; TGI (COLO 205 colon): > 100 µM; GI50 (UACC-62 melanoma): 4.07 µM; TGI (UACC-62 melanoma): 23.5 µM; GI50 (LOX IMVI melanoma): 1.68 µM; TGI (LOX IMVI melanoma): 3.16 µM; GI50 (RPMI-8226 leukemia): 2.87 µM; TGI (RPMI-8226 leukemia): 10.6 µM; GI50 (NCI-H460 lung): 3.95 µM; TGI (NCI-H460 lung): > 100 µM; GI50 (PC-3 prostate): 6.7 µM; TGI (PC-3 prostate): 28.9 µM; GI50 (SK-MEL-2 melanoma): 14.7 µM; TGI (SK-MEL-2 melanoma): 30.2 µM; GI50 (CCRF-CEM leukemia): 6.67 µM; TGI (CCRF-CEM leukemia): 38.1 µM; GI50 (SR leukemia): 1.54 µM; TGI (SR leukemia): 4.58 µM; GI50 (HT29 colon): 1.88 µM; TGI (HT29 colon): 3.66 µM; GI50 (HCT-15 colon): 1.78 µM; TGI (HCT-15 colon): 3.79 µM; GI50 (UO-31 renal): 2.64 µM; TGI (UO-31 renal): 12.8 µM; GI50 (NCI-H23 lung): 4.24 µM; TGI (NCI-H23 lung): 28 µM; GI50 (SK-OV-3 ovarian): 14.4 µM; TGI (SK-OV-3 ovarian): 34.1 µM; GI50 (MALME-3M melanoma): 11.6 µM; TGI (MALME-3M melanoma): 27 µM; GI50 (CAKI-1 renal): 4.55 µM; TGI (CAKI-1 renal): 23.9 µM; GI50 (KM12 colon): 2.45 µM; TGI (KM12 colon): 6 µM; GI50 (SNB-19 CNS): 5.77 µM; TGI (SNB-19 CNS): 29.7 µM; GI50 (HOP-92 NSCLC): 5.46 µM; TGI (HOP-92 NSCLC): 23.5 µM; GI50 (NCI-H226 lung): 2.8 µM; TGI (NCI-H226 lung): 10.9 µM; GI50 (OVCAR-8 ovarian): 2.91 µM; TGI (OVCAR-8 ovarian): > 100 µM; GI50 (SK-MEL-28 melanoma): 14.3 µM; TGI (SK-MEL-28 melanoma): 30.2 µM; GI50 (M14 melanoma): 9.16 µM; TGI (M14 melanoma): 25.5 µM; GI50 (MCF7 breast): 3.84 µM; TGI (MCF7 breast): 19.5 µM; GI50 (A549 NSCLC): 2.7 µM; TGI (A549 NSCLC): 10.5 µM; GI50 (SK-MEL-5 melanoma): 9.12 µM; TGI (SK-MEL-5 melanoma): 29.2 µM; GI50 (IGROV1 ovarian): 2.8 µM; TGI (IGROV1 ovarian): 12.7 µM; GI50 (MDA-MB-468 breast): 4.98 µM; TGI (MDA-MB-468 breast): 24.8 µM; GI50 (HS 578T breast): 20.8 µM; TGI (HS 578T breast): > 100 µM; GI50 (NCI/ADR-RES ovarian): 2.3 µM; TGI (NCI/ADR-RES ovarian): 6 µM; GI50 (BT-549 breast): 5.99 µM; TGI (BT-549 breast): 49 µM; GI50 (ACHN renal): 1.97 µM; TGI (ACHN renal): 4.11 µM; GI50 (786-0 renal): 3.68 µM; TGI (786-0 renal): 15.4 µM
